# ChEMBL document CHEMBL1133393, “Synthesis of 8-chloro-benzo[c]quinolizin-3-ones as potent and selective inhibitors of human steroid 5alpha-reductase 1” (Bioorg Med Chem Lett, 2000)
# Target: T1, 3-oxo-5-alpha-steroid 4-dehydrogenase 1 (Homo sapiens, UniProt P18405)
# T1 sequence (P18405 whole entry): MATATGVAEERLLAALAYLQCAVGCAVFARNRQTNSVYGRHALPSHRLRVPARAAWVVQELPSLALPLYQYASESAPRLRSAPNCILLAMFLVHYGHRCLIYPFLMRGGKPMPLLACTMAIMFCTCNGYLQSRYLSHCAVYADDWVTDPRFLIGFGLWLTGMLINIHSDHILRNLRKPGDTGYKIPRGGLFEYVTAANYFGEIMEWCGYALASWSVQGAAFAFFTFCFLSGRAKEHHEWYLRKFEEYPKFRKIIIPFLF
# Assay: Inhibition of human Steroid 5-alpha-reductase type I
row,SMILES,IC50
1,O=C1C=CN2c3ccc(Cl)cc3CC[C@H]2C1,459 nM
2,C[C@H]1Cc2cc(Cl)ccc2N2C=CC(=O)C[C@H]12,9100 nM
3,C[C@@H]1CC2=CC(=O)CCN2c2ccc(Cl)cc21,14.4 nM
4,C[C@H]1Cc2cc(Cl)ccc2N2CCC(=O)C=C12,346 nM
5,CC(C)CCCC(C)[C@H]1CCC2C3C(CC[C@@]21C)[C@@]1(C)CCC(=O)N(C)C1C[C@@H]3C (some centres not stated),0.5 nM
6,O=C1C=C2CCc3cc(Cl)ccc3N2CC1,49 nM
7,C[C@@H]1C[C@H]2CC(=O)C=CN2c2ccc(Cl)cc21,188 nM
